What was measured:
cut carnation flowers [1] = test: Delaying senescence of cut carnation flowers: loading 24 h in CPAS solution, then 2 ppm ethylene for 24 h, visual inspection/photographs; assay type: in vivo, carnation (Dianthus caryophyllus); parameters: key: The result “−” means no ethylene antagonizing effect by visual inspection.; The result “+” means low ethylene antagonizing effect by visual inspection.; The result “++” means medium ethylene antagonizing effect by visual inspection.; The result “+++” means high ethylene antagonizing effect by visual inspection.; The result “++++” means very high ethylene antagonizing effect by visual inspection; details: CPAS sodium salt 20-120 ppm, 36-55 cm stems
Excerpt: The ethylene antagonizing effect of composition described herein can be assessed by its effect of delaying senescence of cut plants, such as cut flowers. Some embodiments of the present invention are based on the use of the composition described herein to treat cut flowers for delaying senescence of the cut flowers.
Cut Flowers: Unless otherwise noted, carnation flowers grown in a greenhouse were harvested at the beginning of flower opening stage, early in the morning, and were immediately brought to the laboratory. The flowers were either processed immediately or stored in a cold room (4° C.) for 1 to 5 days as required.
Treatment Procedure: The flower stems were cut under tap water to the desired lengths (15 cm-55 cm). Four flowers for each treatment group (of two flowers per each groups) were loaded in a 20 mL aqueous treatment solution (or “loading solution”) for 24 hours. The treatment solution was placed in a 35 mL tube. The loading solutions of CPAS in buffers were prepared in distilled water, as described hereinafter. At the end of CPAS loading, the flowers were transferred to tap water for 1 to 4 days until the cut flowers open. The cut flowers were then exposed to 2 ppm ethylene for 24 hours. Control cut flowers were loaded in a control solution without CPAS in the same manner as the treated cut flowers, and were thereafter exposed to ethylene or air. […]

cut carnation flowers [2] = test: Flower diameter of cut carnations after CPAS loading and ethylene exposure; assay type: in vivo, carnation (Dianthus caryophyllus)
Description: Treatment Procedure: The flower stems were cut under tap water to the desired lengths (15 cm-55 cm). Four flowers for each treatment group (of two flowers per each groups) were loaded in a 20 mL aqueous treatment solution (or “loading solution”) for 24 hours. The treatment solution was placed in a 35 mL tube. The loading solutions of CPAS in buffers were prepared in distilled water, as described hereinafter. At the end of CPAS loading, the flowers were transferred to tap water for 1 to 4 days until the cut flowers open. The cut flowers were then exposed to 2 ppm ethylene for 24 hours. Control cut flowers were loaded in a control solution without CPAS in the same manner as the treated cut flowers, and were thereafter exposed to ethylene or air. At the end of ethylene exposure, the flowers were ventilated and left in tap water under controlled conditions (a temperature of 22° C., a relative humidity of 80%, and continuous fluorescent light) for additional 5 days for senescence assessment.
Flower Diameter: In some experiments, flower diameter was determined according to the method described in Goren et al., Plant Growth Regulation 65:327-334 (2011), to assess flower quality.

## O=C([O-])CCC1=CC1.[Na+] [CPAS, 3-cyclopropyl-1-enyl-propanoic acid salt]
Cut carnation flowers [1]; EDTA 500-1000 ppm
  Results (efficacy of CPAS, ethylene antagonizing effect by visual inspection): +
Cut carnation flowers [1]; KHCO3 20-80 mM pH 8.2
  Results (efficacy of CPAS, ethylene antagonizing effect by visual inspection): ++
Cut carnation flowers [2]; 55 cm stems, 100, 120 or 140 ppm CPAS in Na-phosphate or Na-phosphate/citrate buffer containing NaHCO3
  senescence of cut flowers as measured by flower diameter: delayed senescence was generally observed
Cut carnation flowers [2]; 55 cm stems, CPAS in Na-phosphate buffer (20 mM) containing NaHCO3
  effect of NaHCO3 concentration (60 or 80 mM) on treatment results: did not significantly affect the treatment results
Cut carnation flowers [2]; 55 cm stems, CPAS in Na-phosphate/citrate buffer (20 mM) containing NaHCO3
  effect of NaHCO3 concentration (60 or 80 mM) on treatment results: 80 mM NaHCO3 yielding better treatment results than 60 mM NaHCO3
Cut carnation flowers [2]; stem length 55 cm, 80 or 120 ppm CPAS in 40, 60 or 80 mM Na2CO3/NaHCO3 buffer
  senescence of cut flowers as measured by flower diameter: delayed senescence
Cut carnation flowers [2]; stem length 55 cm, 80 ppm CPAS in 80 mM NaHCO3
  senescence of cut flowers as measured by flower diameter: delayed senescence
Cut carnation flowers [2]; stem length 55 cm, 120 ppm CPAS in 60 mM NaHCO3 versus 40 and 80 mM
  ethylene antagonizing effect compared among NaHCO3 concentrations: highest ethylene antagonizing effect
Cut carnation flowers [2]; stem length 55 cm, 120 ppm CPAS in 40, 60 or 80 mM NaHCO3
  senescence of cut flowers as measured by flower diameter: delayed senescence

— patent US20150223465A1, “COMPOSITION CONTAINING 3-CYCLOPROPYL-1-ENYL-PROPANOIC ACID SALTS AND A CARRIER” (Yissum Research Development Company of the Hebrew …, priority 2012, published 2015)
